Consider two substances from patent publication US10899815B2, “Compositions and methods of using islet neogenesis peptides and analogs thereof” (SHENZHEN HIGHTIDE BIOPHARMACEUTICAL, LTD., priority 2013, dated 2021).

Data set [1] in a line: Peptide stability in mouse plasma. It counts as in vitro ADME. The note with it: 100 μg/mL, 37° C., LC-MS/MS, FIG. 3 and FIG. 5. Here is the method: (§1) The stability of peptides was also tested in mouse and human plasma. Briefly, a certain amount of peptides and eucatropine powder (positive control) was accurately weighed. Test compounds were dissolved in 50% methanol-water solution and diluted to 20 mg/mL, and eucatropine was dissolved in dimethylsulfoxide (DMSO) and diluted to 10 mM, as a stock solution. Eucatropine stock solution was diluted to 0.2 mM with DMSO as a working solution. A stop reagent was prepared containing 200 ng/mL midazolam and tolbutamide in acetonitrile. A volume of 300 μL of stop solution was added to each well of a 96-well deep-well plate placed on ice beforehand.
(§2) For the stability studies, peptides and eucatropine were spiked into plasma respectively, mixed well, and then 100 μL of each mixture solution was transferred into the pre-cooled stop reagent as 0 time point sample. The remaining mixtures were incubated in a 37° C. water bath with shaking at 100 rpm (n=2). The final incubation concentration was 1 μM for eucatropine and 100 μg/mL for all test compounds.
At desired time points, 100 μl, of incubation mixture was transferred to the stop reagent to precipitate proteins. Samples were vortexed and centrifuged at RCF 5000-g for 10 minutes, and supernatant was transferred to a test plate. The samples were analyzed by LC-MS/MS.
Slope was calculated by plotting the natural logarithm of the percentage or remaining amount of test compounds and time, and T12 was calculated in accordance with the following formula.
For stability in mouse plasma, the incubation time was 0, 5, 15, 30 and 60 min for Peptide 1 and eucatropine, 0, 15, 30, 60, 120, 240 and 480 min for Peptide 12, Peptide 16 and Peptide 29.
In another stability study in mouse plasma, the incubation time was 0, 30, 60 and 120 min for Peptide 2 and eucatropine; 0, 30, 60, 120, 240 and 960 min for Peptide 52 and Peptide 54.

Data set [2] is described as follows: Peptide stability in human plasma. It counts as in vitro ADME. Conditions: 100 μg/mL, 37° C., 0-120 min, FIG. 4. Here is the method:
as §1, §2
At desired time points, 100 μl, of incubation mixture was transferred to the stop reagent to precipitate proteins. […] The samples were analyzed by LC-MS/MS.
Slope was calculated by plotting the natural logarithm of the percentage or remaining amount of test compounds and time, and T12 was calculated in accordance with the following formula. […]

Another data set concerns pancreatic islets. Briefly: Glucose-stimulated insulin secretion (GSIS) of isolated islets. It counts as cell-based, Sprague-Dawley (SD) rats. Conditions: rat islets, 12.0 mM glucose, 10 μg/mL peptide (GLP-1 100 nM), 60 min, FIG. 8. On the procedure: The pancreases were procured from male adult Sprague-Dawley (SD) rats. After 7 days acclimation, the animals were sacrificed by cervical dislocation and the entire pancreas was removed and digested with collagenase to isolate islets. After digestion, islets were maintained at 37° C. in RPMI 1640 (Carlsbad, Calif., USA) pH 7.4, containing 10% (v/v) fetal calf serum, 1% penicillin/streptomycin, and 10 mM glucose in a humid atmosphere (5% CO2/95% O2), without the addition of any compound (control), or with the addition of 100 nM glucagon like peptide-1 (GLP-1); or 10 μg/mL Peptide 1, Peptide 12, or Peptide 16, as summarized in Table 4 below. Cultured islets were rinsed in Krebs-Ringer bicarbonate buffer (KRB), pH 7.4, previously gassed with a mixture CO2/O2 (5/95%), and pre-incubated in 1.0 ml KRB containing 0.5% (w/v) BSA and 1.5 mM glucose at 37° C. for 45 min. After this period, groups of 5 islets were incubated in 0.6 ml KRB with the addition of 1.5 or 12.0 mM glucose, with or without the addition of peptides for 60 min. At the end of the incubation period, aliquots of the medium were collected for insulin quantitation.

The next data set is described as follows: Pharmacokinetics in rat. It counts as in vivo, Sprague-Dawley (SD) rats. Conditions: mouse and rat, 25 mg/kg. On the procedure:
After 7 days acclimation, male Sprague-Dawley (SD) rats weighing 210-250 g, or male C57BL/6 mice, weighing 19-24 g, in good health were used in the study. Peptide 1, Peptide 12 and Peptide 16 were dissolved in sterile normal saline and then they were injected via subcutaneous (sc) bolus or intravenous (iv) bolus at the dose level of 25 mg/kg. Three animals in each group were used for blood collection at the time point of 5 min, 15 min, 30 min, 1 h, 2 h, 4 h, 6 h, 8 h and 24 h post-dose. Blood samples (approximately 400 μL) were collected and placed into tubes containing EDTA-K2 and centrifuged at 8000 rpm for 6 minutes at 4° C. to separate plasma front the samples. The resulting plasma was stored frozen at −80° C. until being analyzed. Plasma concentrations of peptides were determined using tandem mass spectrometry (LC-MS/MS) analysis. A non-compartmental module of WinNonlin® Professional 5.2 (Pharsight; St. Louis, Mo.), was used to calculate PK parameters. The abbreviation AUC(0-t) represents area under the curve front the time of dosing to the time of the last observation, the AUC(0-∞) represents area under the curve from the time of dosing to infinity, and the Cmax represents maximum concentration detected.

For a further data set, the system named is ARIP cells. Briefly: ARIP cell proliferation (BrdU ELISA / CellTiter-Glo). It counts as cell-based, rat. Conditions: 100 nM peptide, FIG. 1. Here is the method: To measure cell proliferation, a bromodeoxyuridine (BrdU) ELISA assay was performed. Briefly, ARIP cells (ATCC (American Type Culture Collection), Manassas, Va. USA), a rat pancreatic ductal cell line, were cultured in F-12K medium (Gibco-BRL, Gaithersburg, Md., USA) containing 10% fetal bovine serum (FBS; HyClone, Thermo Fisher Scientific Inc.; Waltham, Mass. USA), 100 μg/ml streptomycin and 100 μg/ml penicillin in a cell incubator. ARIP cells were seeded into 96-well culture plates at 8000 or 0 (as blank control) cells/well in a volume of 50 μl cell culture medium and incubated overnight for the following experiments. On the second day, after replacing the medium with medium without serum, 50 μl serum-free cell culture medium containing test peptides at a series concentrations (final concentrations were 10 μM, 5 μM, 1 μM, 500 nM, 100 nM, 50 nM, 10 nM and 1 nM) were added to seeded cells. Medium without compound was added to negative control and background control wells. […] The absorbance at 450 nm (reference wavelength 690 nm) on an EnVision™ plate reader (Perkin Elmer, Boston, Mass.) within 5 min. after adding the stop solution was measured.
To test for cell viability, a CellTiter-Glo™ (CTG) assay (Promega, Madison, Wis.) was performed. […] Luminescence signal was quantified on an EnVision™ plate reader after a 10 minute incubation at room temperature.
On the technique in general: Dividing cells build labelled thymidine or BrdU into new DNA.

A short description of data set [3]: Peptide stability in culture medium. The note with it: F-12K medium, 0.25 mg/mL, 37° C., 0-72 hours, HPLC, FIG. 2. It counts as physicochemical. Here is the method:
To determine the stability of peptides in culture medium, a certain amount of selected peptides was accurately weighed and dissolved in distilled water to 5 mg/mL as a stock solution. The stock solution was diluted to 0.25 mg/mL with F-12K medium (Gibco-BRL, Gaithersburg, Md., USA) as working solution. A volume of 100 μL of each working solution was transferred into individual sample vials. The sample vials were incubated in a 37° C. incubator for 0, 24, 48 and 72 hours before being analyzed and quantitated by HPLC.

The subject of data set [4] is STZ induced diabetic mice model. Briefly: Efficacy in streptozotocin (STZ) induced diabetic mice model. It counts as in vivo, C57BL/6J mice. On the procedure: After acclimatization in the animal facility for one week, 6-8 weeks old C57BL/6J mice were administered low dose STZ at 40 mg/kg in citrate buffer for 5 consecutive days to establish a TID animal model. Mice with blood glucose greater than 16.7 mmol/L at 5 days post last STZ injection were included in the study. These mice were then treated with INGAP-PP (Peptide 1) or Peptide 7 at the closes of 5 mg/kg (2.5 mg/kg, bid (twice a day)) or 25 mg/kg (12.5 mg/kg, bid) for 20 days before sacrifices. Two additional groups of diabetic mice were administered either saline or a peptide (Peptide 3) composed of a scrambled sequence of amino acids from Peptide 1 as control groups. Blood glucose and insulin levels were measured, and 20 days post the last dosing of test agents, an oral glucose tolerance test (OGTT) was performed in 6 hour fasted animals to determine the effect of Peptide 1 and Peptide 7. Blood samples obtained from the tail cut for glucose determination were detected with an ACCU-CHEK™ glucometer (Roche, ACCU-CHEK® Active), and insulin levels were determined with Rat/Mouse Insulin Elisa kit (Millipore, Billerica, Mass. USA). For the OGTT, after the measurement of the basal glucose concentration (T=−30 min), mice received an oral glucose challenge at 2 g/kg and glucose values were determined by glucometer at 0, 15, 30, 60, 90 and 120 min.

The test system of the next data set is normal C57BL/6J mice. Briefly: Induction of small β-cell clusters in normal mice. It counts as in vivo. On the procedure:
After a 1-week acclimation, C57BL/6J female mice were randomly divided into 4 groups. The two control groups received either 10 mL/kg sterile normal saline (n=4) or scrambled peptide (Peptide 3, 25 mg/kg) (n=5) via subcutaneous injection for 10 days. The other two groups received INGAP-PP (Peptide 1) or INGAP-PP analog Peptide 7 at a dose of 25 mg/kg per day respectively (n=7 per group) for the same period. Body weight and 6 hour fasting blood glucose were measured before treatment and after the last dosing of treatment. Plasma and pancreatic insulin were also measured at the end of the study. On day 11, the pancreas was removed from each animal, cleared of fat and lymph nodes, weighed, and fixed in 10% neutral buffered formalin (NBF) for no longer than 24 hours before processing for morphometric analysis.
Immunohistochemistry analysis was used to determine pancreatic islet size distribution.

Consider “Ac-IGLHDPSHGTLPNGS-OH [Peptide 16, Ac-IGLHDPSHGTLPNGS-OH]”, for which the “stability in mouse plasma” value in data set [1] is “good stability in mouse plasma and were more stable than INGAP-PP”. In data set [2], the “stability in human plasma” value is “good stability in human plasma and were significantly more stable than INGAP-PP”. The “glucose-stimulated insulin secretion versus islets without peptides” value in the data set on pancreatic islets is reported as “released significantly more insulin”. In addition, the “PK properties (AUC and Cmax) compared to INGAP-PP” value in the data set “Pharmacokinetics in rat” is listed as “marked improved PK properties”.
Take “H-IGLHDPSHGTLPAGS-OH [Peptide 7, H-IGLHDPSHGTLPAGS-OH]”: the “percentage increase in cell number” value with ARIP cells was “significantly higher percentage increase in cell number”. Further, the “stability in culture medium” value in data set [3] is reported as “significantly more stable than INGAP-PP peptide”. For the same substance, in data set [4] (5 mg/kg or 25 mg/kg for 20 days), the “body weight or pancreas weight” value was “did not affect”. Besides, in data set [4] (25 mg/kg dose group, end of 20-day period, FIG. 6B), the plasma insulin levels entry is “significantly different from saline controls and almost restored to the level of the naive group”. For the same substance, the “glucose tolerance (OGTT)” value in data set [4] (OGTT 2 g/kg glucose, day 21, FIG. 6C) is “improved glucose tolerance”. Also, in the data set with normal C57BL/6J mice (normal female C57BL/6J mice, 25 mg/kg per day for 10 days, islet size as Log [μm^2], FIG. 7), the “number of islets, islet size ranging from 2.1 to 0.7” value is on record as “increased significantly”. The “body weight, blood glucose, plasma insulin, pancreas insulin, or pancreas weight” value in the data set with normal C57BL/6J mice (normal mice, 25 mg/kg sc for 10 days, compared to saline group) is recorded as “did not affect”.
